Results from US9452986B2, “6-heteroaryloxy- or 6-aryloxy-quinoline-2-carboxamides and method of use” (AbbVie Inc., priority 2014, dated 2016).

biological target: recombinant human Nav1.7 (Homo sapiens (Human), UniProt Q15858); assay: FRET-based membrane potential assay, recombinant human sodium channel Nav1.7; format: cell-based; conditions: HEK293 cells stably expressing recombinant human Nav1.7; veratridine + scorpion venom depolarization; read-out: FRET-Membrane Potential Nav1.7 IC50
In short: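 Channel activation used veratridine at its EC80, set by a dilution curve each experiment, together with Leiurus scorpion venom, added 3 min after compound. Membrane-potential ratio signals from FLIPR Tetra in HEPES-buffered HBSS were fitted to a four-parameter Hill equation for percent inhibition and IC50.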

Chain of recombinant human Nav1.7 (Q15858 whole entry): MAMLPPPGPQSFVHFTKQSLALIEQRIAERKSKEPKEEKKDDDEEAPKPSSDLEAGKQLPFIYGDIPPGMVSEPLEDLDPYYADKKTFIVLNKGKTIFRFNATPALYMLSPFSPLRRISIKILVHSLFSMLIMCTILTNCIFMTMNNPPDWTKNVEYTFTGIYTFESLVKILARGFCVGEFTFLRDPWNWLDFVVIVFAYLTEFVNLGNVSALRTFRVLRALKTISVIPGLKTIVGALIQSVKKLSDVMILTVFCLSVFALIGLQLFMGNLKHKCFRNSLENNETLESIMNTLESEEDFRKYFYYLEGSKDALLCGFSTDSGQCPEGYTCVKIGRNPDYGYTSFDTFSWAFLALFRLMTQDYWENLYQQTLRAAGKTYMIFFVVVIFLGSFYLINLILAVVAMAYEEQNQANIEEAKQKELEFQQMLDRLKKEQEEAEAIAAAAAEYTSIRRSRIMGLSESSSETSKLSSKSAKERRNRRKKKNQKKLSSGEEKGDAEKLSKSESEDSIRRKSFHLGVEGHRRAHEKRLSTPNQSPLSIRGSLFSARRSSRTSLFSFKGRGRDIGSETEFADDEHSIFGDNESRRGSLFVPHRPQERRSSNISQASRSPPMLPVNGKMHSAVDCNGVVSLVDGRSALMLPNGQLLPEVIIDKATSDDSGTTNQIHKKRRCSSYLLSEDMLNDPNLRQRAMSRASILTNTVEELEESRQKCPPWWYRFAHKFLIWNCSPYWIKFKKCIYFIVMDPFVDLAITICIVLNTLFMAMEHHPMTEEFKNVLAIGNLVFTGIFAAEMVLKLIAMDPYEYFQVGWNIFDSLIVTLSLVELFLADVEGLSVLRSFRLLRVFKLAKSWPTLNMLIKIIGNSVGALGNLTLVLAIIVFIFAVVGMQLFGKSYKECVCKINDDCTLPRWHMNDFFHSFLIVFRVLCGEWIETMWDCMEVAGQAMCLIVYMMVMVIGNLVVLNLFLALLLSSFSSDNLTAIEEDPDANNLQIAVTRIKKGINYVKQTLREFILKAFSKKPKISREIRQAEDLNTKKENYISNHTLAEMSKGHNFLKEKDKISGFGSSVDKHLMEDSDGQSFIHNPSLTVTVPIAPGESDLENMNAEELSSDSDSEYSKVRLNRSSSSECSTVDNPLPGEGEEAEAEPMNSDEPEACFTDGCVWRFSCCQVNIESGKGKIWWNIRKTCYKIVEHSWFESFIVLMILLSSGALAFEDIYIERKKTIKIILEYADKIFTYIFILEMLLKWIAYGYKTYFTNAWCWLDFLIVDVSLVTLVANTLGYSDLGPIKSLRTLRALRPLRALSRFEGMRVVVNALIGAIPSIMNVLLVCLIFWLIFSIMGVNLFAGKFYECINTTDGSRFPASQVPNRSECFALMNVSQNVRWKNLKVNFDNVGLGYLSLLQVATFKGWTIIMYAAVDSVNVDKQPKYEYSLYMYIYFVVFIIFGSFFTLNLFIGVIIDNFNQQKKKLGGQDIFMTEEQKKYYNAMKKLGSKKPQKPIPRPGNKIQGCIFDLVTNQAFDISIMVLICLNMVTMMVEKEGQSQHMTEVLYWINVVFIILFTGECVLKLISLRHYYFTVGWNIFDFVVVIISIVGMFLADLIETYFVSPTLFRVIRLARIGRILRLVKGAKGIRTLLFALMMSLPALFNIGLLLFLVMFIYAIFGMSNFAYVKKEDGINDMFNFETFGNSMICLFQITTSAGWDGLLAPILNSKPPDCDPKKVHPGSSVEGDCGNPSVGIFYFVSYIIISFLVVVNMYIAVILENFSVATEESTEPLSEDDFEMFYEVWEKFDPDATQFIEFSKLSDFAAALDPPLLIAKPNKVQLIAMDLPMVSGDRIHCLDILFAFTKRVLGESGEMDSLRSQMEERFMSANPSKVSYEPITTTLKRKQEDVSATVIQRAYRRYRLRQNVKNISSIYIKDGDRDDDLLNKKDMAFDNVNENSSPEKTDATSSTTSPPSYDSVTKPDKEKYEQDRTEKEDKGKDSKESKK

**Q.** Which IC50 does the source give for `NS(=O)(=O)CCNC(=O)c1ccc2cc(Oc3ccc(C(F)(F)F)cn3)ccc2n1` [Example 317, N-(2-sulfamoylethyl)-6-{[5-(trifluoromethyl)pyridin-2-yl]oxy}quinoline-2-carboxamide] here?
**A.** 3.01 µM

**Q.** For `O=C(c1ccc2cc(Oc3ccc(C(F)(F)F)cn3)ccc2n1)N1CCC(F)CC1` [Example 318, (4-fluoropiperidin-1-yl)(6-{[5-(trifluoromethyl)pyridin-2-yl]oxy}quinolin-2-yl)methanone], which IC50 is on record?
**A.** 7.41 µM

**Q.** How did the IC50 turn out when `O=C(c1ccc2cc(Oc3ccc(C(F)(F)F)cn3)ccc2n1)N1CC[C@@H](N2CCCCC2)C1` [Example 319, [(3R)-3-(piperidin-1-yl)pyrrolidin-1-yl](6-{[5-(trifluoromethyl)pyridin-2-yl]oxy}quinolin-2-yl)methanone] was run?
**A.** 0.285 µM

**Q.** How did the IC50 turn out when `O=C(c1ccc2cc(Oc3nnc(C(F)(F)F)s3)ccc2n1)N1CCNCC1` [Example 320, piperazin-1-yl(6-{[5-(trifluoromethyl)-1,3,4-thiadiazol-2-yl]oxy}quinolin-2-yl)methanone] was run?
**A.** 17.1 µM

**Q.** For `CC(C)NC(=O)C1CN(C(=O)c2ccc3cc(Oc4ccc(C(F)(F)F)cn4)ccc3n2)CCN1` (stereo not drawn) [Example 321, N-isopropyl-4-[(6-{[5-(trifluoromethyl)pyridin-2-yl]oxy}quinolin-2-yl)carbonyl]piperazine-2-carboxamide], which IC50 is on record?
**A.** 8.07 µM

**Q.** `CO[C@H]1CN(C(=O)c2ccc3cc(Oc4ccc(C(F)(F)F)cn4)ccc3n2)C[C@H]1OC` [Example 324, [cis-3,4-dimethoxypyrrolidin-1-yl](6-{[5-(trifluoromethyl)pyridin-2-yl]oxy}quinolin-2-yl)methanone] was tested. Which IC50 did it give?
**A.** 5.01 µM

**Q.** For `NC(=O)[C@H]1CCCN(C(=O)c2ccc3cc(Oc4ccc(C(F)(F)F)cn4)ccc3n2)C1` [Example 325, (3S)-1-[(6-{[5-(trifluoromethyl)pyridin-2-yl]oxy}quinolin-2-yl)carbonyl]piperidine-3-carboxamide], which IC50 is on record?
**A.** 8.58 µM

**Q.** `O=C(NC1CCOCC1)c1ccc2cc(Oc3ccc(C(F)(F)F)cn3)ccc2n1` [Example 327, N-(tetrahydro-2H-pyran-4-yl)-6-{[5-(trifluoromethyl)pyridin-2-yl]oxy}quinoline-2-carboxamide] was tested. Which IC50 did it give?
**A.** 0.557 µM

**Q.** With `N#Cc1ccc(Oc2ccc3nc(C(=O)N4CCNCC4)ccc3c2)nc1` [Example 328, 6-{[2-(piperazin-1-ylcarbonyl)quinolin-6-yl]oxy}nicotinonitrile] as the molecule, how does the IC50 read?
**A.** > 20 µM

**Q.** Which IC50 does the source give for `O=C(c1ccc2cc(Oc3ccc(C(F)(F)F)cn3)ccc2n1)N1CCN2C(=O)OCC2C1` (stereo not drawn) [Example 329, 7-[(6-{[5-(trifluoromethyl)pyridin-2-yl]oxy}quinolin-2-yl)carbonyl]hexahydro[1,3]oxazolo[3,4-a]pyrazin-3-one] here?
**A.** 9.28 µM

**Q.** How did the IC50 turn out when `O=C(c1ccc2cc(Oc3ccc(C(F)(F)F)cn3)ccc2n1)N1CCC(F)(F)CC1` [Example 330, (4,4-difluoropiperidin-1-yl)(6-{[5-(trifluoromethyl)pyridin-2-yl]oxy}quinolin-2-yl)methanone] was run?
**A.** 2.95 µM

**Q.** `O=C(c1ccc2cc(Oc3ccc(C(F)(F)F)cn3)ccc2n1)N1CCN(S(=O)(=O)CCC(F)(F)F)CC1` [Example 332, (6-{[5-(trifluoromethyl)pyridin-2-yl]oxy}quinolin-2-yl) {4-[(3,3,3-trifluoropropyl)sulfonyl]piperazin-1-yl}methanone] was tested. Which IC50 did it give?
**A.** 10.1 µM

**Q.** `O=C(c1ccc2cc(Oc3ccc(C(F)(F)F)cn3)ccc2n1)N1CCN2C(=O)OC[C@H]2C1` [Example 333, (8aR)-7-[(6-{[5-(trifluoromethyl)pyridin-2-yl]oxy}quinolin-2-yl)carbonyl]hexahydro[1,3]oxazolo[3,4-a]pyrazin-3-one] was tested. Which IC50 did it give?
**A.** > 20 µM

**Q.** `CC(C)(O)CCNC(=O)c1ccc2cc(Oc3ccc(C(F)(F)F)cn3)ccc2n1` [Example 334, N-(3-hydroxy-3-methylbutyl)-6-{[5-(trifluoromethyl)pyridin-2-yl]oxy}quinoline-2-carboxamide] was tested. Which IC50 did it give?
**A.** 3.44 µM

**Q.** How did the IC50 turn out when `O=C(NC[C@H]1CCCN1)c1ccc2cc(Oc3ccc(C(F)(F)F)cn3)ccc2n1` [Example 335, N-[(2R)-pyrrolidin-2-ylmethyl]-6-{[5-(trifluoromethyl)pyridin-2-yl]oxy}quinoline-2-carboxamide] was run?
**A.** 0.573 µM

**Q.** How did the IC50 turn out when `O=C(NCC1(O)CCC1)c1ccc2cc(Oc3ccc(C(F)(F)F)cn3)ccc2n1` [Example 336, N-[(1-hydroxycyclobutyl)methyl]-6-{[5-(trifluoromethyl)pyridin-2-yl]oxy}quinoline-2-carboxamide] was run?
**A.** 0.439 µM

**Q.** For `NCCNC(=O)c1ccc2cc(Oc3ccc(C(F)(F)F)cn3)ccc2n1` [Example 338, N-(2-aminoethyl)-6-{[5-(trifluoromethyl)pyridin-2-yl]oxy}quinoline-2-carboxamide], which IC50 is on record?
**A.** 0.984 µM

**Q.** With `O=C(c1ccc2cc(Oc3ccc(C(F)(F)F)cn3)ccc2n1)N1CCOC(CO)C1` (stereo not drawn) [Example 339, [2-(hydroxymethyl)morpholin-4-yl](6-{[5-(trifluoromethyl)pyridin-2-yl]oxy}quinolin-2-yl)methanone] as the molecule, how does the IC50 read?
**A.** 14.4 µM

**Q.** With `O=C(c1ccc2cc(Oc3ccc(C(F)(F)F)cn3)ccc2n1)N1CCOC(CF)C1` (stereo not drawn) [Example 340, [2-(fluoromethyl)morpholin-4-yl](6-{[5-(trifluoromethyl)pyridin-2-yl]oxy}quinolin-2-yl)methanone] as the molecule, how does the IC50 read?
**A.** 2.9 µM

**Q.** How did the IC50 turn out when `O=C(c1ccc2cc(Oc3ccc(C(F)(F)F)cn3)ccc2n1)N1CCC2(CCC2O)CC1` (stereo not drawn) [Example 341, (1-hydroxy-7-azaspiro[3.5]non-7-yl)(6-{[5-(trifluoromethyl)pyridin-2-yl]oxy}quinolin-2-yl)methanone] was run?
**A.** 4.23 µM

**Q.** `O=C(c1ccc2cc(Oc3ccc(C(F)(F)F)cn3)ccc2n1)N1CCc2nc[nH]c(=O)c2C1` [Example 342, 6-[(6-{[5-(trifluoromethyl)pyridin-2-yl]oxy}quinolin-2-yl)carbonyl]-5,6,7,8-tetrahydropyrido[4,3-d]pyrimidin-4(3H)-one] was tested. Which IC50 did it give?
**A.** 3.38 µM

**Q.** With `O=C1CN(C(=O)c2ccc3cc(Oc4ccc(C(F)(F)F)cn4)ccc3n2)CCCN1` [Example 343, 4-[(6-{[5-(trifluoromethyl)pyridin-2-yl]oxy}quinolin-2-yl)carbonyl]-1,4-diazepan-2-one] as the molecule, how does the IC50 read?
**A.** > 20 µM

same assay, conditions: read-out: FRET-Membrane Potential Nav1.7 IC50

**Q.** For `O=C(c1ccc2cc(Oc3ccc(C(F)(F)F)cn3)ccc2n1)N1CCC(N2CCOCC2)C1` (stereo not drawn) [Example 316, [3-(morpholin-4-yl)pyrrolidin-1-yl](6-{[5-(trifluoromethyl)pyridin-2-yl]oxy}quinolin-2-yl)methanone], which IC50 is on record?
**A.** 12 µM

**Q.** Which IC50 does the source give for `CNC(=O)C1CN(C(=O)c2ccc3cc(Oc4ccc(C(F)(F)F)cn4)ccc3n2)CCN1` (stereo not drawn) [Example 322, N-methyl-4-[(6-{[5-(trifluoromethyl)pyridin-2-yl]oxy}quinolin-2-yl)carbonyl]piperazine-2-carboxamide] here?
**A.** 12 µM

**Q.** With `O=C(NCCO)c1ccc2cc(Oc3ccc(C(F)(F)F)cn3)ccc2n1` [Example 326, N-(2-hydroxyethyl)-6-{[5-(trifluoromethyl)pyridin-2-yl]oxy}quinoline-2-carboxamide] as the molecule, how does the IC50 read?
**A.** 3.15 µM

**Q.** Which IC50 does the source give for `O=C(N[C@@H]1CCNC1)c1ccc2cc(Oc3ccc(C(F)(F)F)cn3)ccc2n1` [Example 331, N-[(3R)-pyrrolidin-3-yl]-6-{[5-(trifluoromethyl)pyridin-2-yl]oxy}quinoline-2-carboxamide] here?
**A.** 2.64 µM

**Q.** `O=C(NCCN1CCCC1=O)c1ccc2cc(Oc3ccc(C(F)(F)F)cn3)ccc2n1` [Example 337, N-[2-(2-oxopyrrolidin-1-yl)ethyl]-6-{[5-(trifluoromethyl)pyridin-2-yl]oxy}quinoline-2-carboxamide] was tested. Which IC50 did it give?
**A.** 1.66 µM
